From patent publication US20250282768A1 (Janssen Pharmaceutica NV, priority 2022, published 2025)

test system: p-IKKa levels in L363 (NIK translocated multiple myeloma) cells; assay: Assay 2: Effect of compounds on p-IKKa levels in L363 (NIK translocated multiple myeloma) cells; format: cell-based; details: Homo sapiens, L-363, 6 h, read-out: Assay 2 IC50 (nM), p-IKKa (Ser 176/180) in BAFF stimulated L363 cells with MG132, 6 h; average if tested more than once
Outline: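 Read-out is p-IKKa Ser176/180 by AlphaLISA SureFire in lysates. Cells were BAFF-primed (250 ng/ml) overnight or left unstimulated, then exposed 6 h at 37 °C to compound with MG132 (10 μM), 0.3% DMSO. IC50 from sigmoidal curve fit, normalized between stimulated and unstimulated controls.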

First: CN1CC[C@@](O)(c2nnc(-c3cccc(-c4ccnc(Nc5cnn(C)c5Cl)n4)n3)s2)C1=O [Example 102, (S)-3-(5-(6-(2-((5-Chloro-1-methyl-1H-pyrazol-4-yl)amino)pyrimidin-4-yl)pyridin-2-yl)-1,3,4-thiadiazol-2-yl)-3-hydroxy-1-methylpyrrolidin-2-one]
Second: CN1CC[C@](O)(c2nnc(-c3cccc(-c4ccnc(Nc5cnn(C)c5Cl)n4)n3)s2)C1=O [Example 103, (R)-3-(5-(6-(2-((5-chloro-1-methyl-1H-pyrazol-4-yl)amino)pyrimidin-4-yl)pyridin-2-yl)-1,3,4-thiadiazol-2-yl)-3-hydroxy-1-methylpyrrolidin-2-one]
The IC50 of the first is lower: 50 to 500 nM for the first, over 500 nM for the second.

`CN1CC(F)(F)[C@@](O)(c2cn(-c3cccc(-c4ccnc(Nc5cnn(C)c5Cl)n4)n3)nn2)C1=O` [Example 109, (R)-3-(1-(6-(2-((5-Chloro-1-methyl-1H-pyrazol-4-yl)amino)pyrimidin-4-yl)pyridin-2-yl)-1H-1,2,3-triazol-4-yl)-4,4-difluoro-3-hydroxy-1-methylpyrrolidin-2-one] and `Cc1cc(Nc2nccc(-c3cccc(-n4cc([C@@]5(O)C(=O)N(C)CC5(F)F)nn4)n3)n2)ccn1` [Example 117, (R)-4,4-Difluoro-3-hydroxy-1-methyl-3-(1-(6-(2-((2-methylpyridin-4-yl)amino)pyrimidin-4-yl)pyridin-2-yl)-1H-1,2,3-triazol-4-yl)pyrrolidin-2-one] cannot be ordered by IC50: under 50 nM for the first, under 50 nM for the second.

`CN1CC(F)(F)[C@@](O)(c2cc(-c3cccc(-c4ccnc(Nc5cnn6c5COCC6)n4)n3)no2)C1=O` [Example 110, (R)-3-(3-(6-(2-((6,7-Dihydro-4H-pyrazolo[5,1-c][1,4]oxazin-3-yl)amino)pyrimidin-4-yl)pyridin-2-yl)isoxazol-5-yl)-4,4-difluoro-3-hydroxy-1-methylpyrrolidin-2-one] and `CN1C(=O)[C@](O)(c2cc(-c3cccc(-c4ccnc(Nc5cnn6c5CCC6)n4)n3)no2)[C@H]2C[C@H]21` [Example 133, (1R,4R,5S)-4-(3-(6-(2-((5,6-Dihydro-4H-pyrrolo[1,2-b]pyrazol-3-yl)amino)pyrimidin-4-yl)pyridin-2-yl)isoxazol-5-yl)-4-hydroxy-2-methyl-2-azabicyclo[3.1.0]hexan-3-one] cannot be ordered by IC50: under 50 nM for the first, under 50 nM for the second.

`Cc1ncccc1Nc1nccc(-c2cccc(-c3cc([C@]4(O)CCN(C)C4=O)no3)n2)n1` [Example 111, (R)-3-Hydroxy-1-methyl-3-(5-(6-(2-((2-methylpyridin-3-yl)amino)pyrimidin-4-yl)pyridin-2-yl)isoxazol-3-yl)pyrrolidin-2-one] and `CN1CC[C@@](O)(c2cc(-c3cccc(-c4ccnc(Nc5cnn6c5CCC6)n4)n3)on2)C1=O` [Example 134, (R)-3-(5-(6-(2-((5,6-Dihydro-4H-pyrrolo[1,2-b]pyrazol-3-yl)amino)pyrimidin-4-yl)pyridin-2-yl)isoxazol-3-yl)-3-hydroxy-1-methylpyrrolidin-2-one] cannot be ordered by IC50: under 50 nM for the first, under 50 nM for the second.

First: COc1ncc(Nc2nccc(-c3cccc(-c4cc([C@]5(O)CCN(C)C5=O)on4)n3)n2)cn1 [Example 112, (R)-3-Hydroxy-3-(3-(6-(2-((2-methoxypyrimidin-5-yl)amino)pyrimidin-4-yl)pyridin-2-yl)isoxazol-5-yl)-1-methylpyrrolidin-2-one]
Second: COc1nccc(Nc2nccc(-c3cccc(-c4cc([C@]5(O)CCN(C)C5=O)on4)n3)n2)n1 [Example 113, (R)-3-Hydroxy-3-(3-(6-(2-((2-methoxypyrimidin-4-yl)amino)pyrimidin-4-yl)pyridin-2-yl)isoxazol-5-yl)-1-methylpyrrolidin-2-one]
The IC50 of the first is higher: 50 to 500 nM for the first, under 50 nM for the second. The second is the more potent here.

`CN1CC[C@@](O)(c2cn(-c3cccc(-c4ccnc(Nc5cnn6ccccc56)n4)n3)nn2)C1=O` [Example 121, (R)-3-Hydroxy-1-methyl-3-(1-(6-(2-(pyrazolo[1,5-a]pyridin-3-ylamino)pyrimidin-4-yl)pyridin-2-yl)-1H-1,2,3-triazol-4-yl)pyrrolidin-2-one] and `Cc1nn(CC(F)F)cc1Nc1nccc(-c2cccc(-n3cc([C@]4(O)CCN(C)C4=O)nn3)n2)n1` [Example 144, (R)-3-(1-(6-(2-((1-(2,2-Difluoroethyl)-3-methyl-1H-pyrazol-4-yl)amino)pyrimidin-4-yl)pyridin-2-yl)-1H-1,2,3-triazol-4-yl)-3-hydroxy-1-methylpyrrolidin-2-one] cannot be ordered by IC50: under 50 nM for the first, under 50 nM for the second.

`COc1nn(CC(F)F)cc1Nc1nccc(-c2cccc(-n3cc([C@]4(O)CCN(C)C4=O)nn3)n2)n1` [Example 122, (R)-3-(1-(6-(2-((1-(2,2-Difluoroethyl)-3-methoxy-1H-pyrazol-4-yl)amino)pyrimidin-4-yl)pyridin-2-yl)-1H-1,2,3-triazol-4-yl)-3-hydroxy-1-methylpyrrolidin-2-one] and `CN1CC[C@@](O)(c2cn(-c3cc(C(F)F)cc(-c4ccnc(Nc5cnn(C)c5)n4)n3)nn2)C1=O` [Example 137, (R)-3-(1-(4-(Difluoromethyl)-6-(2-((1-methyl-1H-pyrazol-4-yl)amino)pyrimidin-4-yl)pyridin-2-yl)-1H-1,2,3-triazol-4-yl)-3-hydroxy-1-methylpyrrolidin-2-one] cannot be ordered by IC50: under 50 nM for the first, under 50 nM for the second.

Going from `CN1CC[C@@](O)(c2cc(-c3cccc(-c4ccnc(NCCn5ccc(N)n5)n4)n3)no2)C1=O` [Example 123, (R)-3-(3-(6-(2-((2-(3-Amino-1H-pyrazol-1-yl)ethyl)amino)pyrimidin-4-yl)pyridin-2-yl)isoxazol-5-yl)-3-hydroxy-1-methylpyrrolidin-2-one] to `CN(C)CCn1ccc(Nc2nccc(-c3cccc(-c4cc([C@]5(O)CCN(C)C5=O)on4)n3)n2)n1` [Example 126, (R)-3-(3-(6-(2-((1-(2-(Dimethylamino)ethyl)-1H-pyrazol-3-yl)amino)pyrimidin-4-yl)pyridin-2-yl)isoxazol-5-yl)-3-hydroxy-1-methylpyrrolidin-2-one], the IC50 falls from over 500 nM to under 50 nM.

Compared with `CN1CC[C@@](O)(c2cc(-c3cccc(-c4ccnc(Nc5cnn(C6CC6)c5)n4)n3)no2)C1=O` [Example 124, (R)-3-(3-(6-(2-((1-Cyclopropyl-1H-pyrazol-4-yl)amino)pyrimidin-4-yl)pyridin-2-yl)isoxazol-5-yl)-3-hydroxy-1-methylpyrrolidin-2-one], `CN1CC[C@@](O)(c2cc(-c3cccc(-c4ccnc(Nc5cnn(CCN)c5)n4)n3)no2)C1=O` [Example 125, (R)-3-(3-(6-(2-((1-(2-Aminoethyl)-1H-pyrazol-4-yl)amino)pyrimidin-4-yl)pyridin-2-yl)isoxazol-5-yl)-3-hydroxy-1-methylpyrrolidin-2-one] is higher in IC50: under 50 nM for the first, 50 to 500 nM for the second. The first is the more potent here.

First: CN1CC[C@@](O)(c2cc(-c3cccc(-c4ccnc(Nc5ccnn6ccnc56)n4)n3)no2)C1=O [Example 127, (R)-3-Hydroxy-3-(3-(6-(2-(imidazo[1,2-b]pyridazin-8-ylamino)pyrimidin-4-yl)pyridin-2-yl)isoxazol-5-yl)-1-methylpyrrolidin-2-one]
Second: Cc1nccc(Nc2nccc(-c3cccc(-c4cc([C@]5(O)CCN(C)C5=O)on4)n3)n2)c1C [Example 128, (R)-3-(3-(6-(2-((2,3-Dimethylpyridin-4-yl)amino)pyrimidin-4-yl)pyridin-2-yl)isoxazol-5-yl)-3-hydroxy-1-methylpyrrolidin-2-one]
The IC50 of the first is higher: 50 to 500 nM for the first, under 50 nM for the second.

`Cc1cc(Nc2nccc(-c3cccc(-c4cc([C@]5(O)CCN(C)C5=O)on4)n3)n2)n(CCO)n1` [Example 129, (R)-3-Hydroxy-3-(3-(6-(2-((1-(2-hydroxyethyl)-3-methyl-1H-pyrazol-5-yl)amino)pyrimidin-4-yl)pyridin-2-yl)isoxazol-5-yl)-1-methylpyrrolidin-2-one] and `CN(C)CCOc1ccc(Nc2nccc(-c3cccc(-c4cc([C@]5(O)CCN(C)C5=O)on4)n3)n2)nn1` [Example 130, (R)-3-(3-(6-(2-((6-(2-(Dimethylamino)ethoxy)pyridazin-3-yl)amino)pyrimidin-4-yl)pyridin-2-yl)isoxazol-5-yl)-3-hydroxy-1-methylpyrrolidin-2-one] fall in the same range of IC50: 50 to 500 nM for the first, 50 to 500 nM for the second.

First: Cc1ncnn1-c1ccc(Nc2nccc(-c3cccc(-c4cc([C@]5(O)CCN(C)C5=O)on4)n3)n2)nc1 [Example 131, (R)-3-Hydroxy-1-methyl-3-(3-(6-(2-((5-(5-methyl-1H-1,2,4-triazol-1-yl)pyridin-2-yl)amino)pyrimidin-4-yl)pyridin-2-yl)isoxazol-5-yl)pyrrolidin-2-one]
Second: COCn1ncc(Nc2nccc(-c3cccc(-c4cc([C@]5(O)CCN(C)C5=O)no4)n3)n2)n1 [Example 135, (R)-3-Hydroxy-3-(5-(6-(2-((2-(methoxymethyl)-2H-1,2,3-triazol-4-yl)amino)pyrimidin-4-yl)pyridin-2-yl)isoxazol-3-yl)-1-methylpyrrolidin-2-one]
The IC50 of the first is higher: 50 to 500 nM for the first, under 50 nM for the second. The second is the more potent here.

First: COc1cc(-c2ccnc(Nc3cnn(C)c3)n2)nc(-n2cc([C@]3(O)CCN(C)C3=O)nn2)c1 [Example 136, (R)-3-Hydroxy-3-(1-(4-methoxy-6-(2-((1-methyl-1H-pyrazol-4-yl)amino)pyrimidin-4-yl)pyridin-2-yl)-1H-1,2,3-triazol-4-yl)-1-methylpyrrolidin-2-one]
Second: COCc1cc(-c2ccnc(Nc3cnn(C)c3)n2)nc(-n2cc([C@]3(O)CCN(C)C3=O)nn2)c1 [Example 138, (R)-3-Hydroxy-3-(1-(4-(methoxymethyl)-6-(2-((1-methyl-1H-pyrazol-4-yl)amino)pyrimidin-4-yl)pyridin-2-yl)-1H-1,2,3-triazol-4-yl)-1-methylpyrrolidin-2-one]
The IC50 of the first is lower: under 50 nM for the first, 50 to 500 nM for the second.

`COc1cc(-c2cc([C@]3(O)CCN(C)C3=O)on2)nc(-c2ccnc(Nc3cnn(C)c3)n2)c1` [Example 145, (R)-3-Hydroxy-3-(3-(4-methoxy-6-(2-((1-methyl-1H-pyrazol-4-yl)amino)pyrimidin-4-yl)pyridin-2-yl)isoxazol-5-yl)-1-methylpyrrolidin-2-one] was tested, and the IC50 was under 50 nM.
